How the values were obtained:
human EDG-1 = biological target: T1, human EDG-1 (Homo sapiens, UniProt P21453); assay: EDG-1 (S1P1) GTP [γ-35S] binding assay; assay type: biochemical; conditions: GTP [γ-35S] binding to membranes from CHO cells expressing human EDG-1
T1 construct: c-myc (N); expressed in transfected cells
Method: (§1) A. In Vitro: GPCR Activation Assay Measuring GTP [γ-^35S] Binding to Membranes Prepared from CHO Cells Expressing Human EDG Receptors
EDG-1 (S1P1) GTP [γ-^35S] binding assay: Homogenized membranes are prepared from CHO cell clones stably expressing a human EDG-1 N-terminal c-myc tag. Cells are grown in suspension in two 850 cm^2 roller bottles for three or fours days before harvesting. The cells are centrifuged down, washed once with cold PBS, and resuspended in ≦20 ml of Buffer A (20 mM HEPES, pH 7.4, 10 mM EDTA, EDTA-free complete protease inhibitor cocktail [1 tablet/25 ml]). The cell suspension is homogenized on ice, using a Polytron homogenizer at 30000 rpm at three intervals of 15 seconds each. The homogenate is first centrifuged at 2000 rpm on a tabletop low speed centrifuge for 10 minutes. The supernatant, after passing through a cell strainer, is then re-centrifuged at 50,000×g for 25 minutes at 4° C. The pellet is resuspended into buffer B (15% glycerol, 20 mM HEPES, pH 7.4, 0.1 mM EDTA, EDTA-free complete protease inhibitor cocktail [1 tablet/10 ml]). Protein concentration of the prep is determined using the BCA Protein Assay kit (Pierce) using BSA as standard. The membranes are aliquoted and kept frozen at −80° C.
Solutions of test compounds ranging from 10 mM to 0.01 nM are prepared in DMSO. S1P is diluted in 4% BSA solution as positive controls. […]

[1] = test system: EDG-3, EDG-5, EDG-6 and EDG-8; assay: EDG-3, -5, -6 and -8 GTP [γ-35S] binding assays (selectivity versus EDG-1); assay type: biochemical, human
Method: as §1
Solutions of test compounds ranging from 10 mM to 0.01 nM are prepared in DMSO. S1P is diluted in 4% BSA solution as positive controls. The desired amount of membrane prep is diluted with ice-cold assay buffer (20 mM HEPES, pH 7.4, 100 mM NaCl, 10 mM MgCl2, 0.1% Fatty acid-free BSA, 5 μM GDP) and vortexed well. 2 μl or less of compound is distributed into each well of a round-bottom 96-well polystyrene assay plate, followed by addition of 100 μl of diluted membranes (3-10 μg/well) and kept on ice until the addition of hot GTPγS. [^35S]-GTPγS is diluted 1:1000 (v/v) with cold assay buffer and 100 μl is added into each well. The reaction is carried out at room temperature for 90 minutes before the membranes are harvested onto Perkin-Elmer Unifilter® GF/B-96 filter plate using a Packard Filtermate Harvester. After several washes with wash buffer (20 mM HEPES, pH 7.4, 100 mM NaCl, 10 mM MgCl2), and a rinse with 95% ethanol, the filter is dried in a 37° C. oven for 30 minutes. MicroScint-20 is added and the plate sealed for scintillation counting on TopCount. EC50 values are obtained by fitting the GTP [γ-^35S] binding curves (raw data) with the dose response curve-fitting tool of GraphPad Prism. […]

blood lymphocytes = assay: Measurement of circulating lymphocytes (blood lymphocyte depletion); assay type: in vivo, Mice (C57b1/6 male); conditions: Mus musculus, po, mice, orally by gavage, blood collected 6 and 24 hours after administration, read-out: ED50, effective dose required displaying 50% of blood lymphocyte depletion
Method: Measurement of circulating lymphocytes: Compounds are dissolved in DMSO and diluted to obtain a final concentration of 4% DMSO (v/v, final concentration) and then further diluted in a constant volume of Tween80 25%/H2O, v/v. Tween80 25%/H2O (200 μl), 4% DMSO, and FTY720 (10 μg) are included as negative and positive controls, respectively. Mice (C57b1/6 male, 6-10 week-old) are administered 250-300 μL of compound solution orally by gavages under short isoflurane anesthesia.
Blood is collected from the retro-orbital sinus 6 and 24 hours after drug administration under short isoflurane anesthesia. Whole blood samples are subjected to hematology analysis. Peripheral lymphocyte counts are determined using an automated analyzer. Subpopulations of peripheral blood lymphocytes are stained by fluorochrome-conjugated specific antibodies and analyzed using a fluorescent activating cell sorter (Facscalibur). Two mice are used to assess the lymphocyte depletion activity of each compound screened. The result is an ED50, which is defined as the effective dose required displaying 50% of blood lymphocyte depletion.

T1 sequence (P21453 whole entry): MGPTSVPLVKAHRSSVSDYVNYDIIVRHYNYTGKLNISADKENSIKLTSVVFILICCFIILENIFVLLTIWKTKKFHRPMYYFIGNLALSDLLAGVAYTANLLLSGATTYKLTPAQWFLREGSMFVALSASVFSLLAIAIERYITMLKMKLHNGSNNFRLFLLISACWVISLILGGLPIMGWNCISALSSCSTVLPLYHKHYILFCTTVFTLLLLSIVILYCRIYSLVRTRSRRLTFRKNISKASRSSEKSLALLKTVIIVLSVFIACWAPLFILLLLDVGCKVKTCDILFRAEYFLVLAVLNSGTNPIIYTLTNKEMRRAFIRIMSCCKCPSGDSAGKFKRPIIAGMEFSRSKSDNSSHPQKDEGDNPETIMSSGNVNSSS

EC50 (human EDG-1): 0.6 nM
selective for EDG-1 compared to one or more of the other receptors including EDG-3, EDG-5, EDG-6 and EDG-8 [1]: at least 1000 fold
Compound: O=C(O)CCNCc1ccc2sc(-c3ccc(-c4ccccc4)c(C(F)(F)F)c3)cc2c1 [Example 1, 3-{[2-(2-Trifluoromethyl-biphenyl-4-yl)-benzo[b]thiophen-5-ylmethyl]-amino}-propionic acid]
ED50 (blood lymphocytes): 0.2 mg/kg
